According to patent publication US11214803B2, “Modulators of YAP1 expression” (Ionis Pharmaceuticals, Inc., priority 2019, dated 2022):
Strand notation (5' to 3'): a small letter for the sugar, then the base; units joined by * are phosphorothioate-linked, units joined directly phosphodiester-linked; [ ] holds rarer units or linkages, { } end groups; capitals alone tell only the bases. k = constrained ethyl (cEt); [5mC] = 5-methylcytosine; d = 2'-deoxy (DNA)

tested on: Yap1 mRNA; assay: Antisense inhibition of human Yap1 in A-431 cells by cEt gapmers, single dose (Example 4, RTS4814); type: cell-based; conditions: Table 14; A-431 cells, 5,000 cells per well, free uptake, 2,000 nM, approximately 48 hours; RTS4814; normalized to RIBOGREEN; Yap1 mRNA relative to untreated control; * = targets amplicon region of primer probe set
In short: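 A-431 cells took up 3-10-3 cEt gapmers (16-mer, full phosphorothioate, 5-methylcytosines) by free uptake at 2,000 nM for about 48 h. Yap1 mRNA was quantified by qRT-PCR, normalized to total RNA (RIBOGREEN), and reported as % of untreated control.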

Question: For “1075744 (kT*kT*k[5mC]*dG*dG*dG*dT*dT*dA*dG*d[5mC]*dA*dG*kA*k[5mC]*kT; antisense) [Compound 1075744]”, which “YAP1 (% UTC)” value is on record?
Answer: The value was 6 % UTC.

Question: How did the “YAP1 (% UTC)” value turn out when “1074272 (antisense kT*kA*kT*dA*dG*dT*dA*dA*dA*dT*dT*dT*d[5mC]*kT*k[5mC]*k[5mC]) [Compound 1074272]” was run?
Answer: Its value is 16 % UTC.

Question: How did the “YAP1 (% UTC)” value turn out when “1074784 (k[5mC]*k[5mC]*kA*dT*dA*dA*dG*dT*dA*dG*dA*dT*d[5mC]*kT*kA*kA; antisense) [Compound 1074784]” was run?
Answer: The value was 25 % UTC.

Question: Which “YAP1 (% UTC)” value does the source give for “1075584 (kA*kA*kT*dA*dA*dT*dT*dG*dA*d[5mC]*d[5mC]*dT*dA*kG*k[5mC]*kA; antisense) [Compound 1075584]” here?
Answer: The value was 57 % UTC.

same assay, conditions: Table 15; A-431 cells, 5,000 cells per well, free uptake, 2,000 nM, approximately 48 hours; RTS4814; normalized to RIBOGREEN; Yap1 mRNA relative to untreated control; * = targets amplicon region of primer probe set

Question: “1074369 (antisense kT*kG*kA*dT*dA*dG*dT*dA*dT*d[5mC]*dA*d[5mC]*d[5mC]*kT*kG*kT) [Compound 1074369]” was tested. Which “YAP1 (% UTC)” value did it give?
Answer: Its value is 19 % UTC.

Question: How did the “YAP1 (% UTC)” value turn out when “1075233 (antisense kG*kT*kA*dA*dT*dT*dT*dA*dT*d[5mC]*dA*dG*d[5mC]*k[5mC]*kA*kT) [Compound 1075233]” was run?
Answer: Its value is 2 % UTC.

Question: For “1076353 (kA*kT*kT*dA*dA*dA*d[5mC]*dA*dT*dT*d[5mC]*dG*dG*kA*kT*kT; antisense) [Compound 1076353]”, which “YAP1 (% UTC)” value is on record?
Answer: The value was 30 % UTC.

Question: For “1075137 (antisense kG*kA*kT*dT*dA*dA*dA*dT*dA*d[5mC]*dT*dG*dA*k[5mC]*k[5mC]*kA) [Compound 1075137]”, which “YAP1 (% UTC)” value is on record?
Answer: The value was 3 % UTC.

Question: With “1074753 (kT*kA*k[5mC]*dA*dT*dT*dA*dG*dG*dA*dA*d[5mC]*dA*kA*kG*kG; antisense) [Compound 1074753]” as the substance, how does the “YAP1 (% UTC)” value read?
Answer: The value was 4 % UTC.

same assay, conditions: Table 16; A-431 cells, 5,000 cells per well, free uptake, 2,000 nM, approximately 48 hours; RTS4814; normalized to RIBOGREEN; Yap1 mRNA relative to untreated control cells

Question: Which “YAP1 (% UTC)” value does the source give for “1074594 (antisense kT*kA*kG*dG*dA*dG*d[5mC]*dA*dA*dG*dT*d[5mC]*dT*kT*kG*kT) [Compound 1074594]” here?
Answer: Its value is 6 % UTC.

Question: How did the “YAP1 (% UTC)” value turn out when “1075970 (kG*k[5mC]*kT*dT*dA*dA*dA*dA*dG*dG*dA*d[5mC]*dA*kG*kT*kA; antisense) [Compound 1075970]” was run?
Answer: Its value is 34 % UTC.

same assay, conditions: Table 17; A-431 cells, 5,000 cells per well, free uptake, 2,000 nM, approximately 48 hours; RTS4814; normalized to RIBOGREEN; Yap1 mRNA relative to untreated control cells

Question: For “1076547 (antisense kG*kA*k[5mC]*d[5mC]*dA*dA*d[5mC]*d[5mC]*dT*d[5mC]*d[5mC]*d[5mC]*dT*k[5mC]*kA*kG) [Compound 1076547]”, which “YAP1 (% UTC)” value is on record?
Answer: The value was 89 % UTC.

Question: How did the “YAP1 (% UTC)” value turn out when “1074691 (antisense k[5mC]*k[5mC]*k[5mC]*dT*d[5mC]*d[5mC]*d[5mC]*d[5mC]*d[5mC]*dT*dA*dA*dG*k[5mC]*kT*kA) [Compound 1074691]” was run?
Answer: The value was 76 % UTC.

Question: Which “YAP1 (% UTC)” value does the source give for “1074915 (antisense kA*kG*kT*dT*dA*d[5mC]*dA*dT*d[5mC]*d[5mC]*d[5mC]*dG*dA*kG*kT*kG) [Compound 1074915]” here?
Answer: The value was 65 % UTC.

Question: How did the “YAP1 (% UTC)” value turn out when “1075811 (kA*kT*kT*dG*dT*dA*dG*d[5mC]*dA*dA*dT*dA*dG*kA*kG*kT; antisense) [Compound 1075811]” was run?
Answer: The value was 10 % UTC.

same assay, conditions: Yap1 mRNA remaining as percent of untreated control; 3-10-3 cEt gapmers; A-431 cells; Table 36

Question: “1075126 (k[5mC]*kT*kT*dA*dA*dA*dT*d[5mC]*dT*dT*dA*dG*d[5mC]*kA*kA*k[5mC]; antisense) [compound 1075126]” was tested. Which “YAP1 (% UTC)” value did it give?
Answer: The value was 20 % UTC.

Question: “1075350 (antisense kG*kA*kT*dT*dA*dA*dA*dG*d[5mC]*dT*d[5mC]*dA*dT*kT*kG*kA) [compound 1075350]” was tested. Which “YAP1 (% UTC)” value did it give?
Answer: The value was 62 % UTC.

Question: “1076470 (kG*kA*kT*dA*dA*dA*dG*dA*dG*dG*dT*dT*dA*kA*k[5mC]*kA; antisense) [compound 1076470]” was tested. Which “YAP1 (% UTC)” value did it give?
Answer: Its value is 34 % UTC.

same assay, conditions: Yap1 mRNA remaining as percent of untreated control; 3-10-3 cEt gapmers; A-431 cells; Table 37

Question: How did the “YAP1 (% UTC)” value turn out when “1075223 (kG*kT*kT*dA*dA*dA*dA*dG*dT*dG*dA*dA*d[5mC]*k[5mC]*k[5mC]*kA; antisense) [compound 1075223]” was run?
Answer: Its value is 19 % UTC.

Question: For “1075927 (antisense kG*k[5mC]*kT*dT*dA*dA*dA*dA*dT*d[5mC]*dA*dT*dG*kT*kA*kG) [compound 1075927]”, which “YAP1 (% UTC)” value is on record?
Answer: The value was 32 % UTC.

Question: With “1074327 (antisense kT*kA*k[5mC]*dG*d[5mC]*dA*dG*dG*dG*d[5mC]*dT*dA*dA*k[5mC]*kT*k[5mC]) [compound 1074327]” as the substance, how does the “YAP1 (% UTC)” value read?
Answer: Its value is 39 % UTC.

same assay, conditions: table after Table 37, headed TABLE 32 (gapmers targeting SEQ ID NO.: 3); A-431 cells, free uptake, 2,000 nM, approximately 48 hours, RTS4814

Question: Which “YAP1 (% UTC)” value does the source give for “1074882 (kG*k[5mC]*kT*dA*dA*d[5mC]*dT*d[5mC]*d[5mC]*dT*dG*d[5mC]*d[5mC]*kG*kA*kA; antisense) [compound 1074882]” here?
Answer: Its value is 73 % UTC.
